This note sets out measurements from article PMC4671274 (Molecular microbiology, 2015).

In this test the target is Rv0888 (SpmT) (Mycobacterium tuberculosis, UniProt P9WKQ1).
Chain of Rv0888 (SpmT) (P9WKQ1 32-490 limits assumed): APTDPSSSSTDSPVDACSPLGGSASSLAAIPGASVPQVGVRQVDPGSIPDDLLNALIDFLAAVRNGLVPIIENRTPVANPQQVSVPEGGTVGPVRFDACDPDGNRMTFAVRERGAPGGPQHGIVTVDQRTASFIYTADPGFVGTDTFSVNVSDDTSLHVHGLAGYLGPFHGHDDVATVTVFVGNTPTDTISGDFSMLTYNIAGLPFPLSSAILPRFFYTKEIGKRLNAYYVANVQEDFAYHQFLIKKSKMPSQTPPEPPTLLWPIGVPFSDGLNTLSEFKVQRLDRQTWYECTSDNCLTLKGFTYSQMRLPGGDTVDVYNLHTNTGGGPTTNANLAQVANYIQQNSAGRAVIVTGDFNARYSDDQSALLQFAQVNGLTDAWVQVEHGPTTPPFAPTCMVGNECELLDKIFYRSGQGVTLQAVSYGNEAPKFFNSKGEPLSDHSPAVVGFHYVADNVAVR

With sphingomyelin, the Km was 671 µM.
